The values that follow come from patent publication US11702417B2, “Compounds for improving mRNA splicing” (The General Hospital Corporation, priority 2015, dated 2023).

Like-named read-outs stand apart in the source and are kept apart here.

This assay relates to FD (familial dysautomonia) IKBKAP minigene, exon 20 inclusion, in HEK293T cells. The experiment in a line: Primary splicing assay (FD IKBKAP minigene, Firefly/Renilla luciferase reporter in HEK293T). Type of assay: cell-based, human. Particulars: for Emax / EC (maximum kinetin efficacy): Homo sapiens, HEK-293T; for EC (maximum kinetin efficacy): HEK293T, read-out: ECk (compound concentration at which the maximum kinetin efficacy (200 μM) is reached).

Setting [1] is: max efficacy in Primary Assay, Firefly/Renilla ratio, kinetin and DMSO as positive and negative controls, 24 hours of treatment, read-out: Emax (%).
[2] abbreviates: Firefly/Renilla ratio, 24 hours of treatment.

As a reminder, the Emax is the size of the effect at its maximum, as opposed to the concentration needed. In the case of `Clc1nc(NCc2ccco2)c2nc(OC3CNC3)[nH]c2n1` [(333)], under setting [1], the maximal effect (Emax) was 51%.
On the same count and under the same terms, then `Clc1nc(NCc2ccco2)c2nc(Cc3ccncc3)[nH]c2n1` [(99)], with 47%.
As for `OCCn1ccc2c(NCc3ccncn3)nc(Cl)nc21` [(127)], under setting [2], the EC (maximum kinetin efficacy) was 5.45 µM. Besides, the Emax under setting [1] was found to be 264%.
Take `Clc1nc(NCc2ccncc2)c2nc(OC3COC3)[nH]c2n1` [(272)]: the EC (maximum kinetin efficacy) under setting [2] turned out to be 2.6 µM. Further, the Emax under setting [1] is 155%.
Turning to `Cc1c[nH]c2nc(Cl)nc(NCc3ccco3)c12` [(84)], for the setting “max efficacy, value marked (RT-PCR), footnote a: Firefly inhibitor, read-out: Emax (%) (RT-PCR)”, the maximum response (Emax) turned out to be 251%. In addition, the “ECk (RT-PCR)” value (determined by RT-PCR, footnote a Firefly inhibitor, footnote b Renilla interference) fell in the range of 1 to 10 µM.
For `Clc1nc(NCc2nccs2)c2nc(OCc3ccccc3)[nH]c2n1` [(483)], the EC (maximum kinetin efficacy) under setting [2] was 1.26 µM. The Emax under setting [1] came to 138%.
Turning to `Clc1cc(NCc2ccncn2)n2ncnc2n1` [(286)], under setting [1], the Emax worked out at 38%.
As for `CNc1nc2c(NCc3nccs3)nc(Cl)nc2[nH]1` [(245)], the EC (maximum kinetin efficacy) under setting [2] worked out at 15.4 µM. The maximal response (Emax) under setting [1] was determined as 122%.
For `CN(Cc1ccco1)c1ncnc2[nH]cnc12` [(403)], the Emax under setting [1] amounted to 39%.
Regarding `FCCn1ccc2c(NCc3nccs3)nc(Cl)nc21` [(192)], the EC (maximum kinetin efficacy) under setting [2] came out at 7.13 µM. For the same molecule, the maximal response (Emax) under setting [1] was determined as 210%.
Regarding `Cc1cc(CNc2nc(Cl)nc3[nH]cnc23)ccn1` [(196)], the maximum response (Emax) under setting [1] worked out at 7%.
On the same count and under the same terms, then `Cc1[nH]c2nc(Cl)nc(NCc3ccncn3)c2c1F` [(204)], with 27%; and `Clc1nc(NCc2cscn2)c2nc[nH]c2n1` [(381)], with 63.4%.
On to `Cc1cc2c(NCc3nccs3)nc(Cl)nc2[nH]1` [(147)], for which the maximum response (Emax) under setting [1] came to 80%.
On to `Clc1nc(NCc2ccco2)c2[nH]ccc2n1` [(57)], for which, under setting [2], the EC (maximum kinetin efficacy) was 31.2 µM.
For `CC(C)Oc1nc2c(NCc3ccco3)nc(Cl)nc2[nH]1` [(239)], under setting [2], the EC (maximum kinetin efficacy) came out at 2.6 µM. Moreover, the Emax under setting [1] is 147%.
`O=C1Cc2c(NCc3ccncc3)nc(Cl)nc2N1` [(257)]: the Emax under setting [1] amounted to 62%.
`COCc1cc2c(NCc3ccco3)nc(Cl)nc2[nH]1` [(166)]: the maximum response (Emax) under setting [1] amounted to 80%.
Take `Cc1c[nH]c2nc(Cl)nc(NCc3ccncn3)c12` [(126)]: under setting [2], the EC (maximum kinetin efficacy) amounted to 4.73 µM. In addition, under setting [1], the maximal effect (Emax) is 155%.
Regarding `Clc1nc(NCc2nncs2)c2cc[nH]c2n1` [(501)], under setting [1], the Emax stood at 18.1%.
On to `CCCOc1nc2nc(Cl)nc(NCc3nccs3)c2n1C` [(335)], for which, under setting [1], the Emax amounted to 35%.
Consider `CC(=O)N1CC(Oc2nc3c(NCc4nccs4)nc(Cl)nc3[nH]2)C1` [(469)], for which the Emax under setting [1] worked out at 13.3%.
For `Clc1nc(NCc2ccncc2)c2cn[nH]c2n1` [(217)], the EC (maximum kinetin efficacy) under setting [2] worked out at 7.07 µM. Moreover, under setting [1], the maximal response (Emax) was found to be 151%.
Regarding `Clc1nc(NCc2ccncc2Cl)c2nc[nH]c2n1` [(229)], the Emax under setting [1] amounted to 55%.
On to `CCNc1nc2c(NCc3ccco3)nc(Cl)nc2[nH]1` [(243)], for which the EC (maximum kinetin efficacy) under setting [2] turned out to be 17 µM. Under setting [1], the Emax amounted to 120%.
For `Clc1nc(NCc2ccco2)c2ncsc2n1` [(253)] the same measures were 11.8 µM and 187%.
For `CC(Nc1nc(Cl)nc2[nH]ccc12)c1ccncc1` (centres unmarked) [(359)], the maximal effect (Emax) under setting [1] was 31.5%.
`c1ccc(-c2c[nH]c3ncnc(NCc4ccco4)c23)cc1` [(83)]: under setting [1], the Emax was 4%.
In the case of `Fc1c[nH]c2nc(Cl)nc(NCc3nccs3)c12` [(116)], the EC (maximum kinetin efficacy) under setting [2] is 31.8 µM. Further, the maximum response (Emax) under setting [1] amounted to 112%.
For `COc1nc2c(NCc3cscn3)nc(Cl)nc2[nH]1` [(375)] the same measures were 2.18 µM and 134%.
As to `Clc1nc(NCc2ccco2)c2c(Cl)c[nH]c2n1` [(205)], the EC (maximum kinetin efficacy) under setting [2] worked out at 6.41 µM. The Emax under setting [1] stood at 27%.
Consider `OCCn1ccc2c(NCc3ccco3)ncnc21` [(74)], for which, under setting [1], the Emax worked out at 64%.
Same read-out and setting: the same measure for `Cc1nc(NCc2ccco2)c2nc[nH]c2n1` [(45)]: 56%; for `Clc1nc(NCc2ccco2)c2ncn(Cc3cccnc3)c2n1` [(76)]: 69%.
Still for that read-out and setting: then `Clc1nc(NCc2ccco2)c2nc(OCC#Cc3ccccc3)[nH]c2n1` [(474)], with 24.9%.
For the molecule `Clc1nc(NCc2nccs2)c2cn[nH]c2n1` [(222)], the EC (maximum kinetin efficacy) under setting [2] was found to be 8.99 µM. In addition, the maximum response (Emax) under setting [1] came out at 146%.
For `CCCOc1nc2c(NCc3ccco3)nc(Cl)nc2[nH]1` [(292)] the same measures were 0.24 µM and 312%.
Turning to `CNC(=O)c1c[nH]c2nc(Cl)nc(NCc3ccco3)c12` [(172)], under setting [1], the Emax was 61%.
As to `Fc1ccc(CCNc2ncnc3[nH]cnc23)cc1` [(442)], the Emax under setting [1] worked out at 58.6%.
On to `Clc1nc(NCc2nccs2)c2nc(OCc3ccncc3)[nH]c2n1` [(507)], for which, under setting [2], the EC (maximum kinetin efficacy) is 0.77 µM. Further, the Emax under setting [1] came out at 167%.
In the same order, the values of `OCCn1cc(F)c2c(NCc3ccncc3)nc(Cl)nc21` [(135)] are 9.06 µM and 194%.
For `CN(C)c1nc2c(NCc3ccco3)nc(Cl)nc2[nH]1` [(118)] the same measures were 10.5 µM and 112%.
For `COC(=O)COc1nc2c(NCc3nccs3)nc(Cl)nc2[nH]1` [(504)], the Emax under setting [1] is 80%.
On to `N#Cc1c[nH]c2nc(Cl)nc(NCc3nccs3)c12` [(148)], for which the Emax under setting [1] was 62%.
On to `OCCn1ccc2c(NCc3nccs3)nc(Cl)nc21` [(137)], for which the EC (maximum kinetin efficacy) under setting [2] stood at 7.25 µM. For the same molecule, the maximum response (Emax) under setting [1] amounted to 214%.
For the molecule `Cn1cnc2c(NCc3nccs3)nc(Cl)nc21` [(301)], the maximal response (Emax) under setting [1] is 45%.
Same read-out and setting: the same measure for `c1cncc(CNc2ncnc3[nH]cnc23)c1` [(7)]: 39%.
For `COCCOc1nc2c(NCc3ccncc3)nc(Cl)nc2[nH]1` [(290)], the EC (maximum kinetin efficacy) under setting [2] worked out at 2.04 µM. The Emax under setting [1] stood at 238%.
For `Ic1nc(NCc2ccco2)c2nc[nH]c2n1` [(264)], the maximal effect (Emax) under setting [1] amounted to 44%.
Same read-out and setting: the same measure for `c1csc(CNc2[nH]cnc3ncnc2-3)c1` [(438)]: 44%; for `O=c1cc(CNc2nc(Cl)nc3[nH]ccc23)cc[nH]1` [(248)]: 10%.
Still for that read-out and setting: then `COc1nc(NCc2ccco2)c2nc[nH]c2n1` [(36)], with 18%.
As for `CC#CCOc1nc2c(NCc3nccs3)nc(Cl)nc2[nH]1` [(479)], the EC (maximum kinetin efficacy) under setting [2] turned out to be 3.23 µM. Moreover, the Emax under setting [1] was 144%.
In the same order, the values of `OCCOc1nc2c(NCc3nccs3)nc(Cl)nc2[nH]1` [(310)] are 1.5 µM and 191%.
With `O=C1OCCN1CCOc1nc2c(NCc3nccs3)nc(Cl)nc2[nH]1` [(394)], the maximum response (Emax) under setting [1] worked out at 4.8%.
Consider `CNOc1nc2c(NCc3ccco3)nc(Cl)nc2[nH]1` [(280)], for which the Emax under setting [1] worked out at 25%.
For `CCCOc1nc2c(N(CCO)Cc3nccs3)nc(Cl)nc2[nH]1` [(393)], under setting [2], the EC (maximum kinetin efficacy) was 7.4 µM. Besides, under setting [1], the Emax was determined as 85.2%.
For `Clc1nc(NCc2ccco2)c2nc(OCCOc3ccccc3)[nH]c2n1` [(481)], the EC (maximum kinetin efficacy) under setting [2] amounted to 4.14 µM. For the same molecule, the maximum response (Emax) under setting [1] was 93.4%.
In the same order, the values of `CC(C)COc1nc2c(NCc3ccco3)nc(Cl)nc2[nH]1` [(477)] are 2.28 µM and 108%.
On to `c1cc(CNc2ncnc3[nH]cnc23)ccn1` [(404)], for which the Emax under setting [1] worked out at 51%.
With `Clc1nc2c(c(NCc3nccs3)n1)COC2` [(502)], under setting [1], the maximal response (Emax) stood at 28%.
Turning to `Clc1nc(NCc2ccncc2)c2c(Cl)c[nH]c2n1` [(207)], the EC (maximum kinetin efficacy) under setting [2] is 75.8 µM. Besides, the maximal effect (Emax) under setting [1] was determined as 109%.
For `Clc1nc(NCc2ccco2)c2cc(C3CC3)[nH]c2n1` [(156)] the same measures were 15.8 µM and 73%.
For the molecule `N#CCc1nc2c(NCc3ccco3)nc(Cl)nc2[nH]1` [(224)], the EC (maximum kinetin efficacy) under setting [2] amounted to 9.49 µM. Besides, the Emax under setting [1] was 139%.
For `CN(Cc1ccncc1)c1nc(Cl)nc2[nH]ccc12` [(369)], the Emax under setting [1] came to 57.8%.
Consider `Clc1nc(NCc2ncccn2)c2cc[nH]c2n1` [(361)], for which the maximal response (Emax) under setting [1] was determined as 9.8%.
`Clc1cc(NCc2ccncc2)c2nc[nH]c2n1` [(251)]: the EC (maximum kinetin efficacy) under setting [2] was found to be 3.65 µM. The Emax under setting [1] is 258%.
In the same order, the values of `FC1(F)CC(COc2nc3c(NCc4cscn4)nc(Cl)nc3[nH]2)C1` [(488)] are 1.02 µM and 206%.
Consider `Cn1cccc1CNc1nc(Cl)nc2[nH]ccc12` [(360)], for which the Emax under setting [1] is 12.3%.
As to `Clc1nc(NCc2cscn2)c2nc(OCC3CCO3)[nH]c2n1` (centres unmarked) [(493)], the EC (maximum kinetin efficacy) under setting [2] came to 3.05 µM. In addition, the maximal response (Emax) under setting [1] was 168%.
In the same order, the values of `Clc1nc(NCc2ccco2)c2ccsc2n1` [(56)] are 8.23 µM and 152%.
On to `c1nc2nc[nH]c(NC3CCCCCC3)c-2n1` [(512)], for which, under setting [1], the maximal response (Emax) amounted to 43.7%.
As for `FCCn1cc(Cl)c2c(NCc3ccco3)nc(Cl)nc21` [(212)], the maximal response (Emax) under setting [1] amounted to 71%.
For `Fc1nc(NCc2ccncc2)c2cc[nH]c2n1` [(380)], under setting [2], the EC (maximum kinetin efficacy) was 4.38 µM. Also, the Emax under setting [1] came out at 108%.
As to `FC(F)(F)c1cccc(CNc2ncnc3[nH]cnc23)c1` [(10)], the Emax under setting [1] is 21%.
Same read-out and setting: the same measure for `CCCOc1nc2nc(Cl)nc(NCc3ccncn3)c2n1C` [(337)]: 23%.
Consider `CCCCOc1nc2c(NCc3ccncc3)nc(Cl)nc2[nH]1` [(305)], for which the EC (maximum kinetin efficacy) under setting [2] turned out to be 0.43 µM. Besides, the maximal effect (Emax) under setting [1] is 284%.
Take `Clc1nc(NCc2ccncn2)c2nc(OC3COC3)[nH]c2n1` [(267)]: the EC (maximum kinetin efficacy) under setting [2] is 2.4 µM. For the same molecule, the Emax under setting [1] was determined as 183%.
For `CC(C)COc1nc2c(NCc3nccs3)nc(Cl)nc2[nH]1` [(491)] the same measures were 0.48 µM and 155%.
